Test results: patent publication US9309247B2, “2-substituted imidazo[4,5-D]phenanthroline derivatives and their use in the treatment of cancer” (Aptose Biosciences Inc., priority 2013, dated 2016)
Read-outs that look alike come from different tables or passages of the source.

Tests used:
[1] = test system: human non-small cell lung cancer cells H460; experiment: XTT cell proliferation assay, H460; assay type: cell-based; details: 5 days incubation, read-out: Antiproliferative activity, NSCLC H460
Method: (§1) Exemplary compounds 1-8 were tested for anti-cancer activity in vitro using human renal cancer cells (ACHN and CAK-1), human pancreatic cells (BXPC3 and SU-86-86), human prostate cancer cell (DU14), human colon carcinoma cells (HT-29 and KM-12), leukemia cells (HL60), brain cancer/tumour cells (SK-A-AS, U87-MG), and human non-small cell lung cancer cells (H460). Compounds 1-8 are the specific embodiments of Formula (I) and Formula (IV) as described above in this application.
(§2) The cells were maintained as a monolayer in a growth medium; McCoy's 5A modified medium (Sigma, St. Louis, Mo.), supplemented with 2 mM L-glutamine (Gibco, Grand Island, N.Y.), 10% fetal bovine serum (FBS) (Multicell, WISENT Inc. St-Bruno, QC), antibiotic-antimycotic (Multicell), at 37° C. in a 5% CO2-humidified incubator. Cells were transferred onto 150 mm tissue culture plates and grown until sub-confluency (70-80%) prior to their use. The in vitro antiproliferative activity of compounds was evaluated by incubating the cells with varying concentrations of exemplary compounds as shown in Table 1 for 5 days. The efficacy of these compounds in this cell proliferation assay was measured based in the ability of live cells to reduce the tetrazolium salt XTT to orange colored compounds of formazan (XTT cell proliferation kit IT, Roche Applied Science, Montreal, QC).

[2] = test system: human colon carcinoma cells HT-29; experiment: XTT cell proliferation assay, HT-29; assay type: cell-based; details: 5 days incubation, read-out: Antiproliferative activity, Colon HT-29
Method: as §1, §2

[3] = test system: non-small cell lung cancer cells H226; experiment: XTT cell proliferation assay, H226; assay type: cell-based, human; details: 5 days incubation, read-out: Antiproliferative activity, NSCLC H226
Method: [The procedure below names another cell line; the source lists this cell line under the same test.] as §1, §2

[4] = test system: non-small cell lung cancer cells HOP-62; experiment: XTT cell proliferation assay, HOP-62; assay type: cell-based, human; details: 5 days incubation, read-out: Antiproliferative activity, NSCLC HOP-62
Method: [The procedure below names another cell line; the source lists this cell line under the same test.] as §1, §2

[5] = test system: human pancreatic cells SU-86-86; experiment: XTT cell proliferation assay, SU-86-86; assay type: cell-based; details: 5 days incubation, read-out: Antiproliferative activity, Pancreas SU-86-86
Method: as §1, §2

[6] = test system: Human Burkitt's lymphoma Raji cells; experiment: Cell growth inhibition assay, Raji; assay type: cell-based; details: five days of incubation, XTT; read-out: IC50 Raji (hs)
Method: (§3) In this study, compounds 1-8 were screened in vitro against a panel of four mouse lymphoma cell lines and two human lymphoma cell line for cell growth inhibition activity. Following treatment, half maximal inhibitory concentrations (IC50) were determined with the objective of selecting the most efficacious compounds for evaluation of in vitro absorption, distribution, metabolism, and excretion (ADME) screening.
Human Burkitt's lymphoma Raji cells (ATCC CCL-86) were grown in suspension in Roswell Park Memorial Institute (RPMI) 1640 medium supplemented with 10% fetal bovine serum (FBS), 10 mM HEPES KOH pH 7.4, and 2 mM sodium pyruvate at 37° C. in an atmosphere of 5% CO2 in air. Logarithmically growing cells were routinely sub-cultured twice weekly. Briefly, cells were collected by centrifugation, resuspended in pre-warmed media, and diluted 1:10 into a 75 cm^2 flask.
(§4) Cells were subcultured and 4×10^3 cells (in 50 μL) were transferred to each well in a Falcon 96-well tissue culture plate. Exemplary compounds were dissolved in pure dimethyl sulphoxide (DMSO) at a concentration of 10 mM. From this 10 mM stock solution, 12 successive serial dilutions were made in DMSO (2.5 fold dilutions), ranging from 0.52 μM to 10 mM. Using these stock dilutions, 5 μL of each were added to 500 μL of media, and 50 μL of this was added to the cells. The final concentrations being tested ranged from 0.0026 μM to 50 μM. Each concentration was tested in triplicate, and DMSO and untreated cells were also included as controls. After five days of incubation with the compounds, cell viability was determined using the XTT cell proliferation kit (Roche, Cat. No. 11 465 015 001). Following the XTT protocol, 4.5-24 hours after addition of the reagent, the plates were read in a μQuant 96-well plate spectrophotometer (Biotek Instruments Inc.) and the results analyzed to determine the IC50.

[7] = test system: human colon carcinoma cells KM12; experiment: XTT cell proliferation assay, KM12; assay type: cell-based; details: 5 days incubation, read-out: Antiproliferative activity, Colon KM12
Method: as §1, §2

EL4 (mouse, lymphoma) = experiment: Cell growth inhibition assay, EL4; assay type: cell-based; details: five days of incubation, XTT; read-out: IC50 EL4 (ms)
Method: as §3
(§5) Similarly, human Burkitt's lymphoma Ramos cells (ATCC CRL-1596) were grown in suspension in Roswell Park Memorial Institute (RPMI) 1640 medium supplemented with 10% fetal bovine serum (FBS), 10 mM HEPES KOH pH 7.4, and 2 mM sodium pyruvate. Mouse P388D1 (ATCC CCL-46) and WR19L (ATCC TIB-52) cells were grown in suspension in Dulbecco's Modified Eagle Medium (DMEM) with 10% fetal bovine serum (FBS), 10 mM HEPES, and 2 mM sodium pyruvate. Mouse WEHI231 (ATCC CRL-1702) and EL4 (ATCC TIB-39) cells were grown in suspension in DMEM with 10% fetal bovine serum (FBS), 10 mM HEPES KOH pH 7.4, 2 mM sodium pyruvate, and 0.05 mM β-mercaptoethanol. All cells were maintained at 37° C. in an atmosphere of 5% CO2 in air. Logarithmically growing cells were routinely sub-cultured twice weekly. Briefly, cells were collected by centrifugation, resuspended in pre-warmed media, and diluted 1:10 into a 75 cm^2 flask.
as §4

[8] = test system: brain cancer/tumour cells U87-MG; experiment: XTT cell proliferation assay, U87-MG; assay type: cell-based, human; details: 5 days incubation, read-out: Antiproliferative activity, Brain U87-MG
Method: as §1, §2

[9] = test system: non-small cell lung cancer cells EKVX; experiment: XTT cell proliferation assay, EKVX; assay type: cell-based, human; details: 5 days incubation, read-out: Antiproliferative activity, NSCLC EKVX
Method: [The procedure below names another cell line; the source lists this cell line under the same test.] as §1, §2

[10] = test system: human Burkitt's lymphoma Ramos cells; experiment: Cell growth inhibition assay, Ramos; assay type: cell-based; details: five days of incubation, XTT; read-out: IC50 Ramos (hs)
Method: as §3, §5, §4

[11] = test system: non-small cell lung cancer cells HOP-92; experiment: XTT cell proliferation assay, HOP-92; assay type: cell-based, human; details: 5 days incubation, read-out: Antiproliferative activity, NSCLC HOP-92
Method: [The procedure below names another cell line; the source lists this cell line under the same test.] as §1, §2

[12] = test system: human prostate cancer cell DU14; experiment: XTT cell proliferation assay, DU14; assay type: cell-based; details: 5 days incubation, read-out: Antiproliferative activity, Pros. DU14
Method: as §1, §2

WR19L (mouse, lymphoma) = experiment: Cell growth inhibition assay, WR19L; assay type: cell-based; details: five days of incubation, XTT; read-out: IC50 WR19L (ms)
Method: as §3, §5, §4

[13] = test system: human renal cancer cells ACHN; experiment: XTT cell proliferation assay, ACHN; assay type: cell-based; details: 5 days incubation, read-out: Antiproliferative activity, Kidney ACHN
Method: as §1, §2

P388D1 (mouse, lymphoma) = experiment: Cell growth inhibition assay, P388D1; assay type: cell-based; details: five days of incubation, XTT; read-out: IC50 P388D1 (ms)
Method: as §3, §5, §4

[14] = test system: human pancreatic cells BXPC3; experiment: XTT cell proliferation assay, BXPC3; assay type: cell-based; details: 5 days incubation, read-out: Antiproliferative activity, Pancreas BXPC3
Method: as §1, §2

[15] = test system: panel of human and mouse lymphoma cell lines; experiment: Cell growth inhibition, whole lymphoma panel (mean IC50, mean rank); assay type: cell-based; details: mean over six lymphoma cell lines
Method: as §3, §4
In vitro potency was assessed using eight exemplary compounds against a panel of human and mouse lymphoma cell lines (Table 4). […] To compare the efficacy of the compounds in cell growth inhibition across the entire panel of cell lines screened, the eight compounds were ranked according to efficacy against each cell line with a numerical value of one indicating most efficacious (lowest IC50 value) and eight being the least efficacious (highest IC50 value).

leukemia cells HL60 = experiment: XTT cell proliferation assay, HL60; assay type: cell-based, human; details: 5 days incubation, read-out: Antiproliferative activity, Leuk. HL60
Method: as §1, §2

[16] = test system: brain cancer/tumour cells SK-N-AS; experiment: XTT cell proliferation assay, SK-N-AS; assay type: cell-based, human; details: 5 days incubation, read-out: Antiproliferative activity, Brain SK-N-AS
Method: as §1, §2

[17] = test system: WEHI 231 (mouse, B-cell lymphoma); experiment: Cell growth inhibition assay, WEHI231; assay type: cell-based; details: five days of incubation, XTT; read-out: IC50 WEHI231 (ms)
Method: as §3, §5, §4

[18] = NCI screen; cited from earlier work
[19] = test system: human renal cancer cells CAKI-1; experiment: XTT cell proliferation assay, CAKI-1; assay type: cell-based; details: 5 days incubation, read-out: Antiproliferative activity, Kidney CAKI-1
Method: as §1, §2

Row | Compound | IC50 [1] [nM] | IC50 [2] [nM] | IC50 [3] [nM] | IC50 [4] [nM] | IC50 [5] [nM] | IC50 [6] [nM] | IC50 [7] [nM] | IC50 (EL4 (mouse, lymphoma)) [nM] | IC50 [8] [nM] | IC50 [10] [nM] | IC50 [11] [nM] | IC50 [12] [nM] | IC50 (WR19L (mouse, lymphoma)) [nM] | IC50 [13] [nM] | IC50 (P388D1 (mouse, lymphoma)) [nM] | IC50 [14] [nM] | IC50 [15] [nM] | IC50 (leukemia cells HL60) [nM] | IC50 [16] [nM] | IC50 [17] [nM] | also measured
1 | FC1(F)Oc2ccc(-c3nc4c5cccnc5c5ncccc5c4[nH]3)cc2O1 [Compound 5] | 140 | 170 | 190 | 210 | 28 | 109 | 280 | 518 | 180 | 75 | 170 | 180 | 9.3 | 130 | 414 | 200 | 190 | 110 | 90 | 12.6 | IC50 [9]: 150 nM
2 | FC1(F)Oc2ccc(-c3nc4c5cccnc5c5ncccc5c4[nH]3)cc2O1 [Compound 8] | – | 285 | 710 | – | – | 25 | 583 | 199 | 190 | 34 | 160 | 150 | 5.1 | 203 | 146 | 210 | 69 | 110 | – | 3 | –
3 | CN(C)c1ccc(-c2nc3c4ccccc4c4ccccc4c3[nH]2)cc1 [NCI #322334] | – | – | – | – | – | – | – | – | – | – | – | – | – | – | – | – | – | – | – | – | activity in the In Vivo Anticancer Drug Screen [18]: None of these three compounds showed any activity
4 | FC1(F)Oc2ccc(-c3nc4c5cccnc5c5ncccc5c4[nH]3)cc2O1 [Compound 4] | 160 | 300 | 390 | 170 | 26 | 54 | 180 | 486 | 180 | 58 | 170 | 150 | 5.8 | 127 | 243 | 170 | 142 | 170 | 190 | 6.4 | IC50 [19]: 170 nM; IC50 ([9]; Homo sapiens, EKVX, 120 h): 160 nM
5 | FC1(F)Oc2ccc(-c3nc4c5cccnc5c5ncccc5c4[nH]3)cc2O1 [Compound 6] | 160 | 170 | 210 | 30 | 26 | 32 | 180 | 57 | 180 | 18 | 30 | 130 | < 2.6 | 38 | 52 | 200 | 28 | 50 | 36 | 4.2 | IC50 [19]: 30 nM; IC50 [9]: 170 nM
6 | FC1(F)Oc2ccc(-c3nc4c5cccnc5c5ncccc5c4[nH]3)cc2O1 [Compound 7] | 320 | 390 | 200 | 150 | 110 | 112 | 400 | 470 | 40 | 83 | 170 | 30 | 12 | 23 | 209 | 40 | 149 | 30 | 190 | 7.6 | IC50 [19]: 160 nM; IC50 [9]: 220 nM
7 | c1ccc2c(-c3nc4ccccc4[nH]3)cccc2c1 [NCI #144033] | – | – | – | – | – | – | – | – | – | – | – | – | – | – | – | – | – | – | – | – | activity in the In Vivo Anticancer Drug Screen [18]: None of these three compounds showed any activity
8 | FC1(F)Oc2ccc(-c3nc4c5cccnc5c5ncccc5c4[nH]3)cc2O1 [Compound 3] | – | 220 | 390 | – | – | 197 | 230 | 451 | 154 | 139 | 170 | 170 | 59 | 170 | 377 | 180 | 205 | 150 | – | 4.2 | –
9 | FC1(F)Oc2ccc(-c3nc4c5cccnc5c5ncccc5c4[nH]3)cc2O1 [Compound 2] | – | 300 | 430 | – | – | 166 | 220 | 384 | 180 | 150 | 170 | 220 | 31 | 170 | 400 | 180 | 189 | 380 | – | 5.1 | –
